Assay in all cases: competition with [3H]-mesulergine, HEK membranes
Holding throughout (type): binding

Assay [1] addresses T1, human 5-HT2C-INI (WT) receptor (Homo sapiens, UniProt P28335, S138A).
T1 sequence (P28335 33-458 S138A): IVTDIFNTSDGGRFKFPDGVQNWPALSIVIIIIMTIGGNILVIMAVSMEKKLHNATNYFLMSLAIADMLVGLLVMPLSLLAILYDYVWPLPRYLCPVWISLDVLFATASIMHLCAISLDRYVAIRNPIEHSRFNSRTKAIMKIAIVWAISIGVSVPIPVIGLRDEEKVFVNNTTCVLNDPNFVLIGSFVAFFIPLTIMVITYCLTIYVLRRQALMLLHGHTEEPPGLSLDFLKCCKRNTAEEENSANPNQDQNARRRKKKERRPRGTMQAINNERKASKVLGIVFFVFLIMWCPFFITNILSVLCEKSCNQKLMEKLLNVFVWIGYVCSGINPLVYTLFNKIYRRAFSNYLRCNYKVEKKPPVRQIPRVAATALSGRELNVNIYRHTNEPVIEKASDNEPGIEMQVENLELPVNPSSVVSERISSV

Assay [2] deals with T2, human 5-HT2C-INI (WT) receptor (Homo sapiens, UniProt P28335, Y358A).
T2 sequence (P28335 33-458 Y358A): T1 sequence (P28335 33-458 S138A) with A106S, Y326A

The target of assay [3] is T3, human 5-HT2C-INI (WT) receptor (Homo sapiens, UniProt P28335).
T3 sequence (P28335 33-458): T1 sequence (P28335 33-458 S138A) with A106S

Numbering of substitutions follows the chain as printed.

As usually defined, the Ki is a measure of affinity in units of concentration, obtained from inhibition or displacement. A higher Ki goes with weaker binding. Consider `NC1Cc2ccccc2C(c2ccccc2)C1` (racemic) [NH2-PAT], for which the values for the Ki in assay [1], in assay [2] and in assay [3] were 9040 nM, 1350 nM and 1550 nM, respectively.
In the case of `NCCc1c[nH]c2ccccc12` [Tryptamine], the Ki in assay [1] is 1510 nM; in assay [2], 298 nM; in assay [3] it was 57.1 nM.

The values are drawn from paper PMC3224194 (European journal of pharmacology, 2011).
